# Test results: patent US20090105149A1, “Compounds comprising lpa” (ENKAM PHARMACEUTICALS A/S, priority 2003, published 2009)
# Marks after values point to notes of the source that are not given here.
# How the values were obtained:
# hippocampal neurons [1] = assay: Survival of hippocampal neurons exposed to Aβ25-35; type: cell-based, rat; settings: for Neuronal Survival (% of Control): β-amyloid, Hippocampal (E19)
# Method: For the experiments dissociated hippocampal neurons were isolated from Wistar rat embryos at embryonic day 19 or newborn rats as described by Rønn et al. (1999) Nat. Biotechnol. 17:1000-5.
# Briefly, hippocampus was isolated from the brain in ice cold modified Krebs Ringer solution, cleared of blood vessels, roughly homogenised by chopping and then trypsinised. The dissociated cells were washed in the presence of DNAse 1 and soybean trypsin inhibitor.
# For the assay neurons were plated at a density of 40,000 cells/cm^2 on 8-well permanox slides coated with 10 μg/ml poly-L-lysine in Neurobasal medium. 15 minutes after plating, Aβ25-35 was added to a final concentration of 20 μM. The Aβ25-35 had prior to plating been dissolved in sterile deionized water to a concentration of 3 mM and incubated at 37° C. for four days according to Pigino et al. (2001) J. Neurosci. 21:834-42. This treatment induces fibrillation of the Aβ-peptide fragment, thereby increasing its neurotoxic activity. The neurons were incubated with Neurobasal medium containing the FGL peptide for 70 hours, fixed with 4% (v/v) formaldehyde, and stained with Hoechst 33258 for 25 minutes as described by Kruman et al. (1997). Images of 1000-1500 neurons were randomly recorded for each group in each experiment using computer assisted fluorescence microscopy as described for the hippocampal neurite outgrowth assay. Nuclei from dead and live neurons were counted using the software package Prima developed at the Protein Laborator, Copenhagen University, and the fraction of live neurons relative to the total number of neurons was estimated.
# [2] = system: cerebellar granule neurons (CGN); assay: TUNEL assay, DNA-fragmentation in KCl-deprived CGN; type: cell-based, rat; settings: at 10-15 μg/ml; relative to apoptotic neurons without treatment
# Method: The number of neurons with fragmented DNA was measured using the Apo-Alert apoptosis detection kit and the fraction of TUNEL-positive neurons was estimated by counting. Results from at least four independent experiments are shown as percentage of cells showing DNA-fragmentation relative to the total number of cells ±SEM with control cultures in low KCl set at 100%. • (a) Effect of depriving CGN cultures of high KCl on number of cells undergoing apoptosis. • (b) Effect of FGLd in apoptosis-induced CGN cultures.
# 24 hours after induction of apoptotic cell death, the cultures were fixed and the extent of DNA-fragmentation was measured using the ApoAlert apoptosis detection kit, essentially as described by the manufacturer. Briefly, blunt ends of double-stranded DNA molecules were enzymatically labelled with fluorescein-dUTP, and all the neurons were stained with propidium iodide at a concentration of 750 ng/ml. Images of at least 200 neurons from each group in each experiment were obtained using a BioRad Radiance laser scanning system 2000 coupled to a Nikon Eclipse TE 200 confocal microscope equipped with an oil immersion 60×1.4 NA objective (Nikon, Tokyo, Japan). The fraction of TUNEL-positive neurons was determined by counting.
# hippocampal neurons [3] = assay: Neurite outgrowth, hippocampal neurons; type: cell-based, rat; settings: 24 h
# Method: (§1) The cultures were subsequently immunostained for tyrosine hydroxylase. Hippocampal neurons and CGN were plated at a density of 10,000 cells/cm^2 on 8-well permanox chamber slides and incubated for 24 hours in the presence of various concentrations of FGLd. Subsequently the neurons were immunostained for GAP-43. Results from at least five independent experiments for each neuronal culture are shown as percentage ±SEM with the untreated controls set at 100%. *p<0.05, **p<0.01, ***p<0.001 when compared to the controls.
# Results from at least four independent experiments are shown as percentage SEM with untreated controls set at 100%. **p<0.01 when compared to the controls.
# (§2) Peptide solutions without or with inhibitors of various signal transduction pathways were added to a total volume of 300 μl/cm^2, and the slides were incubated at 37° C. After 24 hours, the neurons were fixed with 4% (v/v) formaldehyde for 20 minutes and thereafter immunostained using primary rabbit antibodies against GAP-43 and Alexa Fluor secondary goat anti-rabbit antibodies. Images of at least 200 neurons for each group in each individual experiment were obtained systematically by using computer assisted fluorescence microscopy as previously described (Rønn et al., 2000 op. cit.). Briefly, a Nikon Diaphot inverted microscope with a Nikon Plan 20× objective (Nikon, Tokyo, Japan) coupled to a video camera (Grundig Electronics, Germany) was used for recordings. The same software package as described above for the dopaminergic neurite outgrowth assay was used to process the recorded images.
# [4] = system: cerebellar granule neurons (CGN); assay: Neurite outgrowth, cerebellar granule neurons; type: cell-based, rat; settings: 24 h
# Method: as §1, §2
# rat pups = assay: Surface Righting Reflex in rat pups; type: in vivo; settings: intranasal 2.6 μg per pup at PND 1, 2, 3
# Method: The number of litters of each treatment group was six. […] FGLcontrol as above.
# Dose-Response study. The effect of intranasal administration of 0.026, 0.26 and 2.6 μg FGLd per day at post-natal day (PND) 1, 2 and 3 on performance of the Surface Righting Reflex by rat pups was evaluated.
# Sensory Motor Control Development study.
substance,measurement,setting,value
FGLd: MAP-type dendrimer of FGL; dendrimeric tetramer of the FGL peptide (EVYVVAENQQGKSKA),"neuroprotection of hippocampal neurons, maximal level","hippocampal neurons [1]; at 0.3 μg/ml, 20 μM Aβ25-35, Aβ25-35-treated controls = 100%",110%
same,Neuronal Survival (% of Control),hippocampal neurons [1]; 0.01 μg/mL,109%** % of Control
same,Neuronal Survival (% of Control),hippocampal neurons [1]; 3 μg/mL,107%** % of Control
same,Neuronal Survival (% of Control),hippocampal neurons [1]; 9 μg/mL,107%** % of Control
same,"reduction of number of apoptotic CGN (DNA-fragmentation), maximal rescue",[2],40%
same,"neurite length, hippocampal neurons, plateau-like level","hippocampal neurons [3]; 0.04 up to 20 μg/ml, untreated control = 100%",approximately 150%
same,Effect on Neurite Length (Percent Increase vs. Control),"hippocampal neurons [3]; HN E19, 3 μg/mL",65%
same,Effect on Neurite Length (Percent Increase vs. Control),"hippocampal neurons [3]; HN E19, 9 μg/mL",51%
same,Effect on Neurite Length (Percent Increase vs. Control),"hippocampal neurons [3]; HN E19, 27 μg/mL",69%
same,Effect on Neurite Length (Percent Increase vs. Control),"hippocampal neurons [3]; HN Newborn, 0.04 μg/mL",38%
same,Effect on Neurite Length (Percent Increase vs. Control),"hippocampal neurons [3]; HN Newborn, 5 μg/mL",45%
same,Effect on Neurite Length (Percent Increase vs. Control),"[4]; CGN PND 2-4, 9 μg/mL",24%**
same,Effect on Neurite Length (Percent Increase vs. Control),"[4]; CGN PND 5-8, 3 μg/mL",30%
same,Effect on Neurite Length (Percent Increase vs. Control),"[4]; CGN PND 5-8, 9 μg/mL",93%
same,Effect on Neurite Length (Percent Increase vs. Control),"[4]; CGN PND 5-8, 10 μg/mL",37%
same,Effect on Neurite Length (Percent Increase vs. Control),"[4]; CGN PND 5-8, 25 μg/mL",79%
same,Effect on Neurite Length (Percent Increase vs. Control),"[4]; CGN PND 5-8, 27 μg/mL",121%
same,Effect on Neurite Length (Percent Increase vs. Control),"[4]; CGN PND 5-8, 50 μg/mL",179%
same,Effect on Neurite Length (Percent Increase vs. Control),"[4]; CGN PND 5-8, 100 μg/mL",96%
same,"maximal stimulation of neurite outgrowth, CGN","[4]; at 50 μg/ml, untreated control = 100%",255%
same,"Surface Righting Reflex test, significance vs control and FGLcontrol groups","rat pups; PND4, P<0.05",statistically significant effect
same,Surface Righting Reflex performance,"rat pups; PND 5, vehicle 3.4",1.3 s
